Source: article PMC12188386, “Selective CBP/EP300 Bromodomain Inhibitors: Novel Epigenetic Tools to Counter TNF-α-Driven Inflammation” (JACS Au, 2025)
Read-outs that look alike come from different tables or passages of the source.

How the values were obtained:
[1] = molecular target: CBP-BRD; design: method as in Pegg et al., 2017; Brooks et al., 2017; conditions: SPR, ref Pegg et al., 2017, Brooks et al., read-out: Affinity to CBP-BRD, Kd; cited from earlier work
[2] = tested on: BRD4(1)-BRD; conditions: cited from earlier work
[3] = tested on: TNF-α-induced IL-8 secretion from THP-1 cells; test: cytokine protein measurement (LEGENDPlex); type: cell-based, human; conditions: 10 ng/mL TNF-α, 1 μM compound
Protocol: For cytokine expression determination, 5x10^5 THP-1 cells were plated on 12 well plates the day prior to treatment with 10 ng/mL recombinant human TNF -α (aa 77-233) protein (R&D systems, 10291 -TA) and compounds at a final concentration of 0.1 % DMSO. In all cases, total […]
Cytokine protein measurements
THP-1 cells were plated and treated as for the quantitative RT -PCR, then the cell culture medium was harvested by pelleting the cells (300g, 3min) and taking the supernatant .
Cytokine protein concentrations were determined using the LEGENDPlexTM Human Inflammation Panel 1 (BioLegend) assay with 25 µL of culture medium following the manufacturer’s instructi ns. amp es were ana zed f w c t metr n an rtessa Biosciences), and data was analyzed using LEGENDPlex software (BioLegend).

[4] = concentration in saturated 12.5% CAPTISOL solution; type: physicochemical; conditions: filtered 12.5 w/v% CAPTISOL in water, st. dev. between technical replicates (n=2)
Protocol: (§1) was used as the calibration curve. To obtain saturated solutions of the compounds of interest, in duplicates 4.4 µL of a 10 or 5 mM stock in DMSO was added to 436 µL Buffer (PBS, pH = 7.4), to give a final concentration of 100 or 50 µM. Samples were incubated on a shaker (500 rpm) at 37°C for 90 minutes and then filtered (Millex-GV 13 mm, 0.22 µm). 304 µL of the filtrate was mixed with 76 µL of acetonitrile on a dilution plate, from which 350 µL was transferred to a UV-plate and UV-absorption was read using a SpectraMax M5 (Molecular devices). The absorbance was blank-corrected and compared to the calibration curve to […]
(§2) solubility. The wavelengths used for the calibration curve are available in Table S4.
Sample preparation in CAPTISOL® […]
(§3) lower solubility (2) compounds respectively in a 12.5 w/v% CAPTISOL® solution in water. In a precisely tared vial, required amounts of compounds and CAPTISOL® were weighed out as solids. Based on the known density of 12.5 % CAPTISOL® solution (d = 1.05755 g/mL at 25 °C), the precise weight of the resulting solution and so the required amount of water by weight was calculated. The water was added portion wise with agitation, vortexing and sonication cycles in between additions. The saturated solutions were then filtered (Millex-GV 13 mm, 0.22 µm). In duplicates, aliquots of the filtrates were taken and diluted with blank 12.5 % CAPTISOL® water solution in either a 1:14 (higher sol. compounds) or 1:7 (lower sol. compounds) ratio, 350 µL was transferred to a 96-Well Plate (Greiner, UV-star) then UV absorption (240-400 nm, 10 nm steps) was measured using a SpectraMax M5 (Molecular devices). The absorption was blank-corrected, compared to the calibration curve obtained during the solubility measurement method above and finally corrected for the dilution ratio to obtain the compound concentration in the saturated 12.5 % CAPTISOL® solution. The calculated concentrations are available in Table S4.
(§4) BROMOscan™ assays (provided by Eurofins DiscoverX, US)1,2 […]
coli host derived from the BL21 strain. […]

[5] = tested on: immune cell recruitment to the popliteal lymph node; test: TNF-α induced inflammation model, flow cytometry of pLN; type: in vivo, mouse; conditions: mice, flow cytometry 5 h post-injection of rmTNF-α, vs control group
[6] = tested on: TNF-α-induced cytokine expression in THP-1 cells; test: cytokine mRNA expression by RT-qPCR; type: cell-based, human; conditions: 1 h co-treatment of THP-1 cells with 10 ng/mL TNF-α and 1 μM compound
Protocol: For cytokine expression determination, 5x10^5 THP-1 cells were plated on 12 well plates the day prior to treatment with 10 ng/mL recombinant human TNF -α (aa 77-233) protein (R&D systems, 10291 -TA) and compounds at a final concentration of 0.1 % DMSO. In all cases, total
RNA was extracted using the NucleoSpin® RNA kit (Machery -Nagel) and used for cDNA synthesis with the High -Capacity cDNA Reverse Transcription kit (Applied Biosystems). RT-qPCR reactions were performed using PowerSYBR™ green PCR Master Mix (Applied Biosystems) and a LightCycler® 480 (Roche). cDNA was denatured for 10 min at 95 °C followed by 40 cycles of 15 s at 95 °C and 1 min at 60 °C. Cp values were determined as the maximum of the second derivative and target gene expression was compared to that of hprt from the same sample using the 2-ΔCp method. Gene expression was then normalized to the average of the control samples from the same day, or all biological replicates. […]

[7] = kinetic solubility; type: physicochemical; conditions: PBS pH 7.4, 37°C, 90 min; ± st. dev. between technical replicates
Protocol: Starting from an initial concentration of 100, 50 or 20 µM, a 2-fold serial dilution of the compound (10 mM stock in DMSO) was prepared in a mixture of ACN/Buffer (PBS, pH = 7.4) 2:8, with 1% DMSO. 350 µL was transferred to a 96-Well Plate (Greiner, UV-star) then UV absorption (240-400 nm, 10 nm steps) was measured. The absorption was blank-corrected and plotted against concentration. The wavelength (λ) providing the best fitting straight line […]
as §1, §2
as §3, with “Based” for “lower solubility (2) compounds respectively in a 12.5 w/v% CAPTISOL® solution in water. In a precisely tared vial, required amounts of compounds and CAPTISOL® were weighed out as solids. Based”
as §4
coli host derived from the BL21 strain. E. coli were grown to log-phase and infected with T7 phage from a frozen stock (multiplicity of infection = 0.4) and incubated with shaking at 32°C until lysis (90-150 minutes). The lysates were centrifuged (5,000 x g) and filtered (0.2µm) to remove cell debris. Streptavidin-coated magnetic beads were treated with biotinylated small molecule or acetylated peptide ligands for 30 minutes at room temperature to generate affinity resins for bromodomain assays. The liganded beads were blocked with excess biotin and washed with blocking buffer (SeaBlock (Pierce), 1 % BSA, 0.05 % Tween 20, 1 mM DTT) to remove unbound ligand and to reduce non specific phage binding. Binding reactions were assembled by combining bromodomains, liganded affinity beads, and test compounds (see […]
Sodium azide, 7.4 mM DTT). All reactions were performed in polypropylene 384-well plates in a final volume of 0.02 mL. The assay plates were incubated at room temperature with […]
20). The beads were then resuspended in elution buffer (1x PBS, 0.05% Tween 20, 2 µM non-

[8] = tested on: CBP-BRD; conditions: TR-FRET; ref Crawford et al., 2016; read-out: Affinity to CBP-BRD, IC50 (Published); cited from earlier work
[9] = tested on: MRC5 cells; test: viability assay (resazurin); type: cell-based; conditions: three-day treatment, concentration resulting in 70 % viability
Protocol: MRC5 (2x10^3 cells/well) or THP-1 (8x10^3 cells/well) cells were plated onto 96 well plates and treated with compounds at a final DMSO concentration of 0.5 % (MRC5) or 0.1 % (THP-1).
After 3 days of treatment, resazurin (Acros Organics) was added at a final concentration of 86 μ and incu ated for 2h15 (MRC5) or 3 h (THP-1). Fluorescence (ex. 560 nm, em. 590 nm) was read using a SpectraMax M5 (Molecular devices). GI30 values were calculated as the compound concentration resulting in 70 % viability compared to DMSO treated controls using a nonlinear regression fit using GraphPad Prism with the following equation: (Y=Bottom + (100-Bottom)/(1+(IC50/X)^HillSlope)). […]
After 1.5 h, mice were injected with 10 µL of the prepared CAPTISOL […]
foodpad and also intraperitoneally (for i.p. injection, the 10 µL of CAPTISOL solution was diluted to a final volume of 100 µL using PBS). Organs were collected 5 h after TNF-α […]
LEGENDPlexTM assays (Mouse Pro-inflammatory Chemokine Panel and Mouse Inflammation Panel; Biolegend) were performed to monitor cytokine/chemokine expression. Briefly, popliteal LNs were collected and carefully disrupted in […] ice-cold phosphate buffer, minimizing cell rupture. The suspension was centrifuged at 1,500 rpm for 5 min, and the […]

[10] = molecular target: CBP-BRD; conditions: ITC; ref Picaud et al., 2015; Popp et al., 2016; read-out: Affinity to CBP-BRD, Kd; cited from earlier work

## CO[C@H]1CC[C@H](n2c([C@@H]3CCCC(=O)N3c3ccc(F)c(F)c3)nc3cc(-c4c(C)noc4C)ccc32)CC1 [CCS1477]
[1]
  Kd: 1.7 nM
[2]; ref Pegg et al., 2017, Brooks et al.
  Sel. over BRD4(1)-BRD: 130 fold

## CC(=O)N1CCc2c(c(Nc3ccc(-c4cnn(C)c4)cc3F)nn2[C@H]2CCOC2)C1 [GNE-272, reference compound]
[3]
  TNF-α-induced IL-8 protein secretion: significantly reducing its TNF-α-induced secretion
[4]
  Conc. in 12.5% Captisol sol.: 715 ± 12 µM
[5]
  recruitment of lymphocytes (T and B cells), dendritic cells and neutrophils to the pLN: significantly inhibited the recruitment of lymphocytes
[6]
  TNF-α-induced expression of il1β, il8, mcp-1 and tnf-α (mRNA): inhibited expression to a greater extent than the less potent but more soluble inhibitor 5
[7]
  Kin. Sol.: 75.1 ± 1.0 µM
[8]
  IC50: 20 nM
[9]
  GI30: > 10000 nM

## CCC(=O)N1CCOc2c(cc(-c3ccc(OC)c(OC)c3)cc2OC[C@H]2CCCN(C)C2)C1 [I-CBP112]
[10]
  Kd: 151 nM
[2]; ref Picaud et al., 2015, Popp et al., 2016
  Sel. over BRD4(1)-BRD: 37 fold
